Results reported in ChEMBL document CHEMBL1158206, “Ferintoic Acids A and B, New Cyclic Hexapeptides from the Freshwater Cyanobacterium Microcystis aeruginosa” (J Nat Prod, 1996).
Active and inactive are the calls of the source. The rule behind the calls is not given here. Numbered stars: 1 amine (or outer) side, 2 acyl side, 3 side chain; on linkers, the order of the positions; unused ones are H or OH. Bridge positions count the residues as written; N and C are the ends. Square brackets hold non-standard residues; d marks the D form. Peptide text beside a SMILES is read from it. hTyr = N[C@@H](CCc1ccc(O)cc1)C(=O)O; aIle = CC[C@@H](C)[C@H](N)C(=O)O; NMeA = CN[C@@H](C)C(=O)O; CO = O=C([*:1])[*:2]

Legend:
[1] = Inhibition of chymotrypsin at 150 uM
[2] = Inhibition of chymotrypsin at 10 uM

Compound	Activity [1]	Activity [2]
CC[C@@H](C)[C@@H]1NC(=O)[C@H](NC(=O)N[C@@H](Cc2c[nH]c3ccccc23)C(=O)O)CCCCNC(=O)[C@H](Cc2ccccc2)NC(=O)[C@H](C)N(C)C(=O)[C@H](CCc2ccc(O)cc2)NC1=O	inactive	
CC(C)[C@@H]1NC(=O)[C@H](NC(=O)N[C@@H](Cc2c[nH]c3ccccc23)C(=O)O)CCCCNC(=O)[C@H](Cc2ccccc2)NC(=O)[C@H](C)N(C)C(=O)[C@H](CCc2ccc(O)cc2)NC1=O ({Trp-CO}-[dK]V[hTyr][NMeA]F; lactam 1-C)	inactive	
CC[C@@H](C)[C@@H]1NC(=O)[C@H](NC(=O)N[C@@H](Cc2ccc(O)cc2)C(=O)O)CCCCNC(=O)[C@H](Cc2ccccc2)NC(=O)[C@H](C)N(C)C(=O)[C@H](CCc2ccc(O)cc2)NC1=O ({Tyr-CO}-[dK][aIle][hTyr][NMeA]F; lactam 1-C)		Active
